For 34 compounds, inhibition and IC50 results are on record in patent US5350748A, “3-thio or amino substituted-benzo[b]thiophene-2-carboxamides and 3-oxygen, thio, or amino substituted-benzofuran-2-carboxamides as inhibitors of cell adhesion” (Warner-Lambert Company, priority 1993, dated 1994).

The subject of one test is human neutrophil adhesion to TNF-α-stimulated human umbilical vein endothelial cells (HUVEC). Put plainly: Modified method: inhibition of human neutrophil adhesion to TNF-α-stimulated human umbilical vein endothelial cells (calcein-labeled neutrophils). The class given is cell-based. Conditions: 33 μM, neutrophils labeled with calcein, read-out: Adhesion ECA, % inhibition. The protocol: The 3-thiol, thioether, amino, alkylamino, or arylamino-benzo[b]thiophene-2-carboxamides and 3-alkoxy, aryloxy, thiol, thioether, amino, alkylamino, or arylamino-benzofuran-2-carboxamides have been shown in an in vitro assay to prevent the adhesion of neutrophils to human umbilical vein endothelial cells (HUVECS) stimulated with TNF-α. In this assay, HUVECS are stimulated with TNF-α for 4 hours, after which the cells are assayed for their ability to adhere to human neutrophils labeled with either ^51 Cr or calcein, a fluorescent dye. The details of this assay are described in the DETAILED DESCRIPTION.
Neutrophils were isolated from anticoagulant-treated venous blood obtained from healthy human volunteers according to the method of Ferrante and Thong [J. Immunol. Methods 24, 389-93 (1978)]. The cell preparations consisted of greater than 98% neutrophils.
Modified Method for Determining the Inhibition of Human Neutrophil Adhesion to TNF-α, IL-1α, and LPS Stimulated Human Umbilical Vein Endothelial Cells
The previous assay using ^51 Cr labeled human neutrophils has been modified. The neutrophils are now labeled with the fluorescent dye calcein. The current method allows for quantification of neutrophil adherence by fluorescence spectroscopy.
Second passage HUVEC (Clonetics Corporation, San Diego, Calif., CC-2617) were seeded into Coring (Corning glass works, Corning, N.Y.) 96-well cell culture plates at approximately 5×10^3 cells/well and grown to confluency in supplemented endothelial basal medium (EBM, MCDB-131, Clonetics, 10 ng/mL EGF, 1 μg/mL hydrocortisone, 0.4% bovine brain extract, 5% Fetal Bovine Serum). One day prior to running the assay, typically 3 days postseeding, the cultures were refed with 0.2 mL/well supplemented EBM (S-EBM).
Test compounds were prepared as 10 mL stock solutions at a concentration of 1.0 mM. The compounds were initially solubilized in 0.1 mL DMSO followed by the addition of 9.9 mL S-EBM. The drug preparations were then diluted in one step to a concentration of 66.6 μM or 200 μM. Solubilizations and dilutions were performed in polystyrene containers.
Recombinant human tumor necrosis factor-α (TNF, Genzyme, Boston, Mass., code TNF-H) was prepared at 400 U/mL in S-EBM. Stock TNF was prepared to 20,000 U/mL in Delbecco's phosphate-buffered saline (PBS, Gibco, Grand Island N.Y.) plus 0.1% BSA and stored at -70° C. HUVEC were washed one time with 0.2 mL warm unsupplemented EBM and then stimulated for 4hours at 37° C. with 200 U/mL TNF in the presence of 33.3 μM or 100 μM test compound. This was accomplished by adding 0.1 mL of 400 U/mL TNF and 0.1 mL 66.6 μM or 0.1 mL of 200 μM test compound. These additions were done slowly as to not disrupt the HUVEC monolayer. Each compound was tested in six wells. Unstimulated (vehicle control) and TNF-stimulated without test compound treatments were also run in each plate.
One hour prior to adding the neutrophils (isolated as previously described) to the HUVEC, neutrophils (5×10^6 /mL) were labeled for 30 minutes at 37° C. with 5 μM calcine-AM (Molecular Probes, Eugene, Oreg.) in Hanks' balanced salt solution plus 0.45% BSA. Stock calcein was prepared to 5mM in anhydrous DMSO and stored desiccated at -20° C. At the end of the incubation the cells were washed two times in cold HBSS and resuspended to a final concentration of 1×10^6 cells/mL in unsupplemented EBM.
At the end of the 4-hour stimulation and immediately prior to the addition of the neutrophils to the HUVEC monolayer, the plates were washed with 0.2 ml warm unsupplemented EBM to remove TNF and drug. Neutrophils (1×10^5 cells) were slowly added to each of the treated wells and incubated for 30 minutes at 37° C. At the end of the incubation the plates were washed two times with 0.2 mL warm unsupplemented EBM followed by a final addition of 0.1 mL for plate scanning.
The fluorescence was determined using a Millipore Cytofluor 2300 system (excitation=480, emission=530, sensitivity=4). […]
`COc1ccc2sc(C(N)=O)c(S(=O)(=O)C(C)C)c2c1` [Example 3, 5-Methoxy-3-[(1-methylethyl)sulfonyl]benzo[b]thiophene-2-carboxamide]: the inhibition (commonly how much of the control response was suppressed) at 33 µM is 32%.
Still for that read-out and setting: next, `COc1ccc2sc(C(N)=O)c(SCc3ccccc3)c2c1` [Example 6, 5-Methoxy-3-[(phenylmethyl)thio]benzo[b]thiophene-2-carboxamide]: 35%; `COC(=O)c1ccc(NC(=O)c2sc3ccc(OC)cc3c2SC(C)C)cc1` [Example 7, Methyl 4-[[[5-methoxy-3-[(1-methylethyl)thio]benzo[b]thien-2yl]carbonyl]amino]benzoate]: 19%; `COc1ccc2sc(C(=O)Nc3ccc(C(=O)O)cc3)c(SC(C)C)c2c1` [Example 8, 4-[[[5-Methoxy-3[(1-methylethyl)thio]benzo[b]thien-2yl]carbonyl]amino]benzoic acid]: 13%.
As to `COc1ccc2sc(C(N)=O)c(S)c2c1` [Example 9, 3-Mercapto-5-methoxybenzo[b]thiophene-2-carboxamide], the inhibition at 33 µM was 15%.
The same measure, in the same setting: for `COC(=O)CCSc1c(C(N)=O)sc2ccc(OC)cc12` [Example 10, Methyl 3-[[2-(aminocarbonyl)-5-methoxybenzo[b]thien-3-yl]thio]propanoate] the value was 55%; for `COc1ccc2sc(C(N)=O)c(SCCN3CCOCC3)c2c1` [Example 11, 5-Methoxy-3-[[2-(4-morpholinyl)ethyl]thio]benzo[b]thiophene-2-carboxamide], 27%.
Take `CC(C)Sc1c(C(N)=O)sc2cccc(Cl)c12` [Example 12, 4-Chloro-3-[(1-methylethyl)thio]benzo[b]thiophene-2-carboxamide]: the inhibition at 33 µM was 34%.
Regarding `COC(=O)CCCCSc1c(C(N)=O)sc2ccc(OC)cc12` [Example 13], the inhibition at 33 µM is 21%.
Same read-out and setting: for `COc1ccc2sc(C(N)=O)c(SCCCCC(=O)O)c2c1` [Example 14] the value was 37%; for `COc1ccc2sc(C(N)=O)c(SCC(=O)O)c2c1` [Example 15, [[2-(Aminocarbonyl)-5-methoxybenzo[b]thien-3-yl]thio]acetic acid], 7%; for `COC(=O)c1ccc(CSc2c(C(N)=O)sc3ccc(OC)cc23)cc1` [Example 16, Methyl 4-[[[2-(aminocarbonyl)-5-methoxybenzo[b]thien-3-yl]thio]methyl]benzoate], 10%.
Turning to `CC(C)Sc1c(C(N)=O)sc2ccc(OCc3ccccc3)cc12` [Example 17, 3-[(1-Methylethyl)thio]-5-(phenylmethoxy)benzo[b]thiophene-2-carboxamide], the inhibition at 33 µM is 24%.
Take `CN(C)c1c(C(N)=O)sc2cccc(Cl)c12` [Example 18, 4-Chloro-3-(dimethylamino)benzo[b]thiophene-2-carboxamide]: the inhibition at 33 µM was 10%.
Still for that read-out and setting: for `COc1cccc2sc(C(N)=O)c(N)c12` [Example 19, 3-Amino-4-methoxybenzo[b]thiophene-2-carboxamide] the value was 30%; for `COc1cccc2sc(C(N)=O)c(N(C)C)c12` [Example 20, 3-(Dimethylamino)-4-methoxybenzo[b]thiophene-2carboxamide], 63%; for `CSc1ccc2sc(C(N)=O)c(N(C)C)c2c1` [Example 21, 3-Dimethylamino-5-(methylthio)benzo[b]thiophene-2-carboxamide], 53%.
As for `NC(=O)c1oc2ccccc2c1N` [Example 25, 3-Amino-2-benzofurancarboxamide], the inhibition at 33 µM was 21%.
On the same count and under the same terms, for `NC(=O)c1oc2cccc(Cl)c2c1N` [Example 26, 3-Amino-4-chloro-2-benzofurancarboxamide] the value was 24%.
Still for that read-out and setting: for `CC(C)Oc1c(C(N)=O)oc2ccc(O)cc12` [Example 38, 5-Hydroxy-3-(1-methylethoxy)-2-benzofurancarboxamide] the value was 67%.

The same test, now with this note: 100 μM, neutrophils labeled with calcein, read-out: Adhesion ECA, % inhibition.
Turning to `CNc1c(C(N)=O)[s+]([O-])c2ccc(OC)cc12` (stereo not shown) [Example 22, 5-Methoxy-3-(methylamino)benzo[b]thiophene-2-carboxamide-1-oxide], the inhibition at 100 µM is 16%.
Same read-out and setting: for `COc1ccc2c(c1)c(NC(C)C)c(C(N)=O)[s+]2[O-]` (stereo not shown) [Example 23, 5-Methoxy-3-[(1-methylethyl)amino]benzo[b]thiophene-2-carboxamide-1-oxide] the value was 7%.
Same read-out and setting: for `COc1ccc2c(c1)c(Nc1ccccc1)c(C(N)=O)[s+]2[O-]` (stereo not shown) [Example 24, 5-Methoxy-3-(phenylamino)benzo[b]thiophene-2-carboxamide-1-oxide] the value was 21%; for `CC(C)Oc1c(C(N)=O)oc2ccc(Cl)cc12` [Example 28, 5-Chloro-3-(1-methylethoxy)-2-benzofurancarboxamide], 52%; for `CC(C)Oc1c(C(N)=O)oc2ccccc12` [Example 29, 3-(1-Methylethoxy)-2-benzofurancarboxamide], 20%.
Still for that read-out and setting: next, `COc1ccc2oc(C(=O)NCc3ccccc3)c(OC(C)C)c2c1` [Example 30, 5-Methoxy-3-(1-methylethoxy)-N-(phenylmethyl)-2-benzofurancarboxamide]: 42%.
As for `CC(C)Oc1c(C(=O)Nc2ccccc2)oc2ccc(Cl)cc12` [Example 31, 5-Chloro-3-(1-methylethoxy)-N-phenyl-2-benzofurancarboxamide], the inhibition at 100 µM is 11%.
Regarding `CC(C)Oc1c(C(=O)NCc2ccccc2)oc2ccc(Cl)cc12` [Example 32, 5-Chloro-3-(1-methylethoxy)-N-(phenylmethyl)-2-benzofurancarboxamide], the inhibition at 100 µM was 95%.
In the case of `CC(C)NC(=O)c1oc2ccccc2c1OC(C)C` [Example 33, 3-(1-Methylethoxy)-N-(1-methylethyl)-2-benzofurancarboxamide], the inhibition at 100 µM was 15%.
Same read-out and setting: next, `CC(C)Oc1c(C(=O)Nc2ccccc2)oc2ccccc12` [Example 34, 3-(1-Methylethoxy)-N-phenyl-2-benzofurancarboxamide]: 70%; `CC(C)Oc1c(C(=O)NCc2ccccc2)oc2ccccc12` [Example 35, 3-(1-Methylethoxy)-N-(phenylmethyl)-2-benzofurancarboxamide]: 61%; `COc1ccc2oc(C(N)=O)c(OCc3ccccc3)c2c1` [Example 36, 5-Methoxy-3-(phenylmethoxy)-2-benzofurancarboxamide]: 4%.
On the same count and under the same terms, next, `CC(C)Oc1c(C(N)=O)oc2ccc(-c3ccccc3)cc12` [Example 37, 3-(1-Methylethoxy)-5-phenyl-2-benzofurancarboxamide]: 68%.

The test is the same for the next values; noted with them: footnote a, neutrophil label not given, IC50 by linear regression from 33.3, 10.0, 3.3 and 1.0 μM, read-out: Adhesion ECA, IC50.
For `COc1ccc2oc(C(N)=O)c(OC(C)C)c2c1` [Example 27, 5-Methoxy-3-(1-methylethoxy)-2-benzofurancarboxamide], the IC50 (commonly the concentration at which inhibition is half-maximal) was 13 µM.
